The target of data set [1] is T1, human full length Hsp90 (Homo sapiens, UniProt P07900).
T1 construct: amino acid residues 1 to 732 of human Hsp90 (GenBank: BC121062.2); made in house; host or cells: E. coli BL21DE3 (pET15b)
Put plainly: Determination of the Kd value of FITC-labeled geldanamycin for Hsp90 (fluorescence polarization). It counts as binding. Particulars: with or without 50 nM Hsp90. The procedure: Eighty five micro liters (μl) of a binding assay buffer (20 mM HEPES, pH 7.5, 50 mM KCl, 5 mM MgCl2, 20 mM sodium molybdate, 0.01% NP-40, 2 mM DTT, and 0.1 mg/mL BSA) were added to a 96 well black plate placed on ice. DMSO (3 μl) was added to the wells, followed by the addition of either 10 μl human full length HSP90 (50 nM final concentration) diluted in the binding assay buffer or 10 μl of the buffer alone. The plates were incubated at 4° C. on a plate shaker for 24 hours. Two μl of 50× GA-FITC titrate within a final range of 160 nM to 0.3125 nM in DMSO were added to all wells, followed by incubation at ambient temperature for 1 h with agitation. Fluorescence polarization readings were taken at excitation and emission wavelengths of 480 and 500 nm respectively. Measurements were performed in duplicate. Specific binding was calculated by subtracting polarization values in the presence of
Hsp90 from those in the absence of Hsp90. GA-FITC Kd values were calculated using Prism software (GraphPad Software, Inc., San Diego, Calif.).
A 10 point concentration response curve for binding of GM-FITC to Hsp90 was obtained. The concentration of GM-FITC used ranged from 160 nM to 0.3125 nM, which produced a saturable concentration response curve. […] The value of binding maximum (Bmax) was determined to be 188 nM.

Data set [2] deals with T1, human full length Hsp90. In words: Fluorescence polarization Hsp90 competitive binding assay (GM-FITC displacement). The procedure: Hsp90 binding assays was performed generally according to the procedure described in J. Biomol. […] Hsp90 inhibitors were solubilized in DMSO at a stock concentration of 50 mM. […] Eighty five μl of binding assay buffer (20 mM HEPES, pH-7.5, 50 mM KCl, 5 mM MgCl2, 20 mM sodium molybdate, 0.01% NP-40, 2 mM DTT, and 0.1 mg/ml BSA) was added to the wells of a 96 well black plate placed on ice. […] Next, 10 μl either binding assay buffer alone (control) or human full length Hsp90 protein diluted in the binding assay buffer was added to achieve a final concentration of 50 nM. The plates were incubated at 4° C. on a plate shaker for 24 h. Two μl of 50× GM-FITC (9 nM final) in DMSO was added to all wells and the plate was incubated at ambient temperature for 1 h with shaking. Fluorescence polarization readings were taken in duplicate at excitation and emission wavelengths of 480 nm and 500 nm respectively. Specific binding was calculated by subtracting polarization values in the presence of Hsp90 from those in the absence of Hsp90. To calculate percent inhibition the specific binding values obtained for GA-FITC in the presence of compound were compared to values for GA-FITC in the absence of compound (DMSO only).
A general note: In fluorescence polarisation assays a small probe gives low polarisation when free and higher when bound to something large.

Data set [3] can be described thus: Rat CNS exposure (plasma and CNS tissue concentration, LC-MS/MS). In kind it is in vivo. The following applies: 10 mg/kg. The procedure:
Test subjects (Sprague-Dawley rats) were housed in sterile vivarium with controlled temperature, humidity and 12-hour light-dark cycle (7:00 lights-on and 19:00 lights-off). Following procurement, rats were acclimated to the vivarium facility for 7 days prior to study day-1 with ad libitum access to both diet and water. Bedding was changed twice weekly. […] On study day-1 rats were administered vehicle or Hsp90 inhibitor formulation. Following administrations of test article formulation, blood and CNS tissue was collected at 6.5 h post-dosed by a necropsy procedure. In detail, CNS tissue was isolated from the Vehicle and dose groups, divided into 2 mid-sagittal sections, placed in tarred 1 mL micro-centrifuge tubes, weighed and immediately frozen on dry ice. Blood was isolated by a cardiac puncture procedure from the Vehicle and Hsp90 inhibitor dose groups. From these samples, plasma was isolated in plasma separator tubes containing ethylenediaminetetraacetic acid as the anticoagulant. HSP90 inhibitor concentrations in plasma and CNS tissue were determined using LC-MS/MS based methods following a 60% acetonitrile extraction.

The mark [4] stands for this setting: Table 1, 50 nM Hsp90, 9 nM GM-FITC, read-out: Biochemical Potency IC50.
Where [5] appears, read: Table II, binding affinities ranked by potency.
Setting [6] is: Table II, binding affinities ranked by potency, read-out: IC50.

Molecules are shown by their SMILES. Like-named read-outs stand apart in the source and are kept apart here.

For the compound `CO[C@H]1/C=C\C=C(/C)C(=O)NC2=CC(=O)C(NCCCCCCNC(=S)Nc3ccc(-c4c5ccc(=O)cc-5oc5cc(O)ccc45)c(C(=O)O)c3)=C(C[C@@H](C)C[C@H](OC)[C@H](O)[C@@H](C)/C=C(\C)[C@@H]1OC(N)=O)C2=O` [GA-FITC], the “binding maximum (Bmax)” value at human full length Hsp90 [1] is 188 nM. Binding on human full length Hsp90 [1] (160 nM to 0.3125 nM probe) was put at a Kd of 0.0031 µM.

As to `Cc1cnc(CN(C)c2cc(Cl)nc(N)n2)c(C)c1Cl` [SBI-0639899, 6-Chloro-N4-((4-chloro-3,5-dimethylpyridin-2-yl)methyl)-N4-methylpyrimidine-2,4-diamine], the IC50 at human full length Hsp90 [2] (setting [4]) and on human full length Hsp90 [2] (setting [6]) was 2.15 µM in each case. Further, on human full length Hsp90 [2] (setting [5]), the Ki (as a rule, the equilibrium dissociation constant of an inhibitor or competing ligand from its target) amounted to 0.538 µM.

With `Cc1cnc(CN(C)c2cc(Cl)nc(N)n2)c(C)c1Br` [SBI-0639900, N4-((4-Bromo-3,5-dimethylpyridin-2-yl)methyl)-6-chloro-N4-methylpyrimidine-2,4-diamine], the values for the IC50 on human full length Hsp90 [2] (setting [4]) and at human full length Hsp90 [2] (setting [6]) were at least 32 µM and over 32 µM, respectively. The Ki on human full length Hsp90 [2] (setting [5]) was over 8 µM.

Regarding `COc1c(C)cnc(CN(C(=O)CC(C)(C)C)c2cc(Cl)nc(N)n2)c1C` [SBI-0639901, N-(2-amino-6-chloropyrimidin-4-yl)-N-((4-methoxy-3,5-dimethylpyridin-2-yl)methyl)-3,3-dimethylbutanamide], the IC50 at human full length Hsp90 [2] (setting [4]) and on human full length Hsp90 [2] (setting [6]) was 30 µM each time. This compound also had a Ki on human full length Hsp90 [2] (setting [5]) of 7.5 µM.

Regarding `COc1c(C)cnc(CN(C(=O)CCCCl)c2cc(Cl)nc(N)n2)c1C` [SBI-0639902, N-(2-Amino-6-chloropyrimidin-4-yl)-4-chloro-N-((4-methoxy-3,5-dimethylpyridin-2-yl)methyl)butanamide], the IC50 (commonly the concentration at which inhibition is half-maximal) was at least 32 µM on human full length Hsp90 [2] (setting [4]) and over 32 µM on human full length Hsp90 [2] (setting [6]). This compound gave a Ki on human full length Hsp90 [2] (setting [5]) of over 8 µM.

For `COc1c(C)cnc(CN(C(C)=O)c2cc(Cl)nc(N)n2)c1C` [SBI-0640492], the IC50 on human full length Hsp90 [2] (setting [4]) was at least 32 µM; on human full length Hsp90 [2] (setting [6]) it was over 32 µM. The compound further showed a Ki on human full length Hsp90 [2] (setting [5]) of over 8 µM.

For `COc1c(C)cnc(CN(CCc2ccc3c(c2)OCO3)c2cc(Cl)nc(N)n2)c1C` [SBI-0640607, N4-(2-(Benzo[d][1,3]dioxol-5-yl)ethyl)-6-chloro-N4-((4-methoxy-3,5-dimethylpyridin-2-yl)methyl)pyrimidine-2,4-diamine], the concentration for half-maximal inhibition (IC50) on human full length Hsp90 [2] (setting [4]) and at human full length Hsp90 [2] (setting [6]) was 0.368 µM each time. Further, at human full length Hsp90 [2] (setting [5]), the Ki is 0.092 µM.

For `COc1c(C)cnc(CN(CCc2ccc(Cl)cc2)c2cc(Cl)nc(N)n2)c1C` [SBI-0640608, 6-Chloro-N4-(4-chlorophenethyl)-N4-((4-methoxy-3,5-dimethylpyridin-2-yl)methyl)pyrimidine-2,4-diamine], the IC50 at human full length Hsp90 [2] (setting [4]) and on human full length Hsp90 [2] (setting [6]) was 0.311 µM in each case. Moreover, the Ki on human full length Hsp90 [2] (setting [5]) was found to be 0.078 µM.

For the compound `CCCCCCN(Cc1ncc(C)c(OC)c1C)c1cc(Cl)nc(N)n1` [SBI-0640609, 6-Chloro-N4-hexyl-N4-((4-methoxy-3,5-dimethylpyridin-2-yl)methyl)pyrimidine-2,4-diamine], the IC50 at human full length Hsp90 [2] (setting [4]) and at human full length Hsp90 [2] (setting [6]) was 0.391 µM throughout. This compound also came in with a Ki on human full length Hsp90 [2] (setting [5]) of 0.098 µM.

Consider `Cc1cnc(CN(CCc2ccc(Cl)cc2)c2cc(Cl)nc(N)n2)c(C)c1Cl` [SBI-0640610, 6-Chloro-N4-((4-chloro-3,5-dimethylpyridin-2-yl)methyl)-N4-(4-chlorophenethyl)pyrimidine-2,4-diamine], for which the IC50 at human full length Hsp90 [2] (setting [4]) and on human full length Hsp90 [2] (setting [6]) was 0.194 µM throughout. The same compound yielded a Ki on human full length Hsp90 [2] (setting [5]) of 0.049 µM.

Regarding `COc1c(C)cnc(CN(CCN2CCOCC2)c2cc(Cl)nc(N)n2)c1C` [SBI-0640611, 6-Chloro-N4-((4-methoxy-3,5-dimethylpyridin-2-yl)methyl)-N4-(2-morpholinoethyl)pyrimidine-2,4-diamine], the IC50 at human full length Hsp90 [2] (setting [4]) and on human full length Hsp90 [2] (setting [6]) was 1.69 µM in each case. For the same compound, at human full length Hsp90 [2] (setting [5]), the Ki was 0.423 µM.

As to `CCN(Cc1ncc(C)c(OC)c1C)c1cc(Cl)nc(N)n1` [SBI-0640612, 6-Chloro-N4-ethyl-N4-((4-methoxy-3,5-dimethylpyridin-2-yl)methyl)pyrimidine-2,4-diamine], the IC50 on human full length Hsp90 [2] (setting [4]) and on human full length Hsp90 [2] (setting [6]) was 1.14 µM each time. Also, the Ki on human full length Hsp90 [2] (setting [5]) was found to be 0.285 µM.

With `COc1c(C)cnc(CN(CCc2cccc(Br)c2)c2cc(Cl)nc(N)n2)c1C` [SBI-0640613, N4-(3-Bromophenethyl)-6-chloro-N4-((4-methoxy-3,5-dimethylpyridin-2-yl)methyl)pyrimidine-2,4-diamine], the IC50 on human full length Hsp90 [2] (setting [4]) and on human full length Hsp90 [2] (setting [6]) was 0.097 µM throughout. At human full length Hsp90 [2] (setting [5]), the Ki stood at 0.024 µM.

For `COc1c(C)cnc(CN(C(=O)C(C)C)c2cc(Cl)nc(N)n2)c1C` [SBI-0640644], the IC50 at human full length Hsp90 [2] (setting [4]) and at human full length Hsp90 [2] (setting [6]) was 13.9 µM in each case. Further, the Ki on human full length Hsp90 [2] (setting [5]) was found to be 3.48 µM.

For the compound `CCCC(=O)N(Cc1ncc(C)c(OC)c1C)c1cc(Cl)nc(N)n1` [SBI-0640645], the IC50 at human full length Hsp90 [2] (setting [4]) and at human full length Hsp90 [2] (setting [6]) was 30 µM each time. The Ki at human full length Hsp90 [2] (setting [5]) amounted to 7.5 µM.

As to `Cc1cn(-c2cc(F)c(C(N)=O)c(N[C@H]3CCOC3)c2)c2c1C(=O)CC(C)(C)C2` [SNX-0723, reference compound], in data set [3], the “partitioning CNS versus plasma” value is reported as “selectively partitions into the CNS compartment compared to plasma”.

Source of the values: patent US20160311795A1, “PYRIMIDINE DIAMINE DERIVATIVES AS INHIBITORS OF CYTOSOLIC HSP90” (CALASIA PHARMACEUTICALS, INC., priority 2012, published 2016).
